Article PMC12635197, “Discovery of first-in-class inhibitors of the TRF1:TIN2 protein:protein interaction by fragment screening” (Scientific Reports, 2025)

Columns and labels:
[1] = Fragment solubility assay (quantitative 1H NMR); type: physicochemical; details: NMR buffer, overnight incubation, 1H NMR quantified against 1 mM caffeine standard
[2] = biological target: T1, TRF1TRFH (Homo sapiens, UniProt P54274); test: LO-NMR R2KD assay; type: binding; details: global KD shared across 1H NMR peaks, single experiment, 95% CI in parentheses; 2 µM TRF1TRFH
T1 construct: encoding residues 47–268, UniProt identifier P54274-1; His6-MBP (TEV-cleavable) (N, cleaved yes); made in house; host or cells: E. coli BL21-CodonPlus(DE3)-RIL
T1 sequence (P54274 47-268): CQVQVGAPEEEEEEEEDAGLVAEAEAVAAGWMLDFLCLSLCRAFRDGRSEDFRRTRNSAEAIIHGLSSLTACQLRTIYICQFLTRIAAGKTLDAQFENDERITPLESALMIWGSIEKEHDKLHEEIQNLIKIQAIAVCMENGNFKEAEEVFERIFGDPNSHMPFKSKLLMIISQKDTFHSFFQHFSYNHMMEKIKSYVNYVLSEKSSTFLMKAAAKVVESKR
Protocol: Recent work by Liu and colleagues introduced a novel LO-NMR method that can be used to quantitatively determine the dissociation constant (KD) of a ligand for a protein from measured R2 values of ligand nuclei at a range of ligand concentrations.
The R2KD assay was carried out as described by Liu et al.[40]. A Bruker SamplePro liquid handler was used to prepare 10 samples: 8 samples containing an increasing ligand concentration from 50 to 500 µM whilst maintaining a constant TRF1TRFH concentration (2 µM final); and two samples containing ligand only at 200 µM and 400 µM. All ten samples were prepared from stock solutions of ligand, DMSO, protein and buffer alone using the Bruker SamplePro liquid handler prior to transfer to 3-mm NMR tubes.
NMR data were collected at 298 K on a Bruker Avance Neo 600-MHz spectrometer using the Bruker Topspin 4.0 software. T2 relaxation experiments were performed using the standard Bruker CPMG pulse program with Excitation Sculpting incorporated to suppress water signal. The spin-echo period (delay-180°-delay) was set to 1 ms (d20 = 500 µs), and the relaxation delay (d1) was set to 10 s. The sudo-2D experiment contained nine slices with the spin echo period repeated at the following times: 4, 20, 100, 200, 300, 500, 700, 1000, and 2000 ms. T2 relaxation data were processed using the MestReNova 14.1 data analysis module to obtain integrals of individual[1]H-NMR signals, which were used to calculate R2 with the equation I = I0e^(−tR2). GraphPad Prism 9.0.0 was used to fit R2 values of individual compound peaks to obtain an overall (shared) KD value from all peaks of the compound.

Kin. Sol. [1]: 320 µM
Kd [2]: 29 µM
SMILES: COc1cc(COc2ccc(S(=O)(=O)[O-])c3ccccc23)cc(OC)c1.[Na+] [Compound 40]
